Experimental data from BindingDB's records for doi:10.1016/s0960-894x(01)00776-4 (Wyeth-Ayerst Research, 2002).

Assay: Inhibition of Src-transformed fibroblast cell proliferation

IC50: 2400 nM
SMILES: COc1cc(Nc2c(C#N)cnc3cc(OC)c(OC)cc23)c(C)cc1Cl
